Values of other authors in patent publication US20030211945A1, “Natural herbicide compositions” (priority 2002, published 2003).
Where two headings read alike, the source gives them in different places.

System: selected weeds

CC(=O)O [acetic acid]
weed control (concentrations of acetic acid below about 5%): variable results | weed control (high concentrations of acetic acid): control selected weeds
